{
  "source": "patent US20180066004A9",
  "about": "“MITOCHONDRIA-TARGETING PLATINUM(IV) PRODRUG” (priority 2014, published 2018)",
  "key": {"PCa PC3 cell line": {"tested_on": "PCa PC3 cell line", "experiment": "MTT cytotoxicity assay, PC3", "assay_type": "cell-based, human", "settings": "free drugs 72 h, NPs media changed after 12 h plus 60 h", "protocol": "(§1) In vitro cytotoxicity of Platin-M, T-Platin-M, and NT-Platin-M was assessed by the 3-(4,5-dimethylthiazol-2-yl)-2,5-diphenyltetrazolium bromide or MTT assay on PCa PC3 cell line, human neuroblastoma SH-SY5Y cell line, and cisplatin resistant A2780/CP70 ovarian cancer cell line (Table 1). The rationale behind the use of androgen independent PC3 cell line was the inherent resistance of these cells to cisplatin therapy due to enhanced repair of Pt-nDNA adducts by the NER, poor targeting, and androgen-independent PCa with reduced normal mtDNA acquire a more progressive phenotype by inducing mutations to nDNA.\n(§2) PC3 cells (2000 cells/well), A2780/CP70 cells (2000 cells/well), SHSY-5Y (2000 cells/well), and MSC (2000 cells/well) were plated on a 96 well plate and allowed to grow overnight. The media was changed and increasing concentrations of each formulation was added. […] Control values were set at 0% cytotoxicity or 100% cell viability."}, "[1]": {"tested_on": "cisplatin resistant A2780/CP70 cells", "experiment": "XF24 MitoStress assay (OCR), A2780/CP70", "assay_type": "cell-based, human", "settings": "10 μM with respect to Pt, 12 h; for ATP-linked respiration on addition of oligomycin / basal OCR levels versus control cells / stimulation of mitochondrial respiration with FCCP after oligomycin: A2780/CP70", "excerpt": "(§3) Mitochondrial Toxicity of T-NP. […] Many TPP-based small molecules were described to disrupt ΔΨm, uncouple OXPHOS, and inhibit mitochondrial respiration. Preclinical mitochondrial toxicology tests can have high positive predictive value. We examined Empty-T-NP, Empty-nontargeted-NPs (NT-NP), and DBCO-TPP induced changes in mitochondrial respiration of prostate cancer (PCa) PC3 cells and cisplatin resistant ovarian cancer A2780/CP70 cells as a measure of mitochondrial toxicity (FIG. 3B). The oxygen consumption rate (OCR) of cells is an important indicator of normal mitochondrial functions. Thus, OCR can be used as a parameter to study TPP-induced mitochondrial toxicity.\n(§4) After 12 h, OCR was measured and the effects of metabolic modulators oligomycin, carbonyl cyanide 4-(trifluoromethoxy)phenylhydrazone (FCCP), antimycin A, and rotenone allowed determination of multiple parameters of mitochondrial function (FIG. 3B). […] Several parameters linked to mitochondrial respiration; spare respiratory capacity, coupling efficiency, basal respiration, ETC accelerator response, and ATP coupler response were calculated from the OCR (pMoles/min) vs. Time (min) traces in FIG. 3B.\n(§5) Mitochondrial Bioenergetics. We next investigated basal respiration, coupling efficiency, and spare respiratory capacity in response to Platin-M and its NPs using a XF24 MitoStress assay kit (FIG. 5). To determine whether accumulation of Platin-M inside the mitochondrial matrix of PC3 or A2780/CP70 cells inhibited mitochondrial respiration, we measured oxygen consumption rates (OCRs) in these cells as a way of assessing OXPHOS. […] PC3 or A2780/CP70 cells were treated with Platin-M, cisplatin, T-Platin-M-NPs, NT-Platin-M-NPs for 12 h.\n(§6) Mito-stress Test Analysis: Different parameters of respiration: basal respiration, coupling efficiency, and spare respiratory capacity were investigated by using Seahorse XF-24 cell Mito Stress Test Kit. Prior to the assay, XF sensor cartridges were hydrated. To each well of an XF utility plate, 1 mL of Seahorse Bioscience calibrant was added and the XF sensor cartridges were placed on top of the utility plate, and kept at 37° C. incubator without CO2 for a minimum of 12 h. PC3, A2780-CP70, SH-SY5Y, and H9C2 (FIG. S18) cells were cultured in XF24-well cell culture microplates (Seahorse Bioscience) at a density of 2.5×10^4 cells/well (except for H9C2, cell density of this cell line: 5×10^4 cells/well) (0.32 cm2) in 200 μL growth medium and then incubated for 24 h at 37° C. in 5% CO2 atmosphere. […] After 12 h, all but 50 μL of the culture medium was removed from each well and the cells were rinsed two times with 500 μL of XF stress test glycolysis optimization medium pre-warmed to 37° C. and finally 450 μL of glucose depleted optimization medium was added to each well and the plate was placed at 37° C. without CO2 for 1 h prior to assay. Different parameters of respiration were calculated by subtracting the average respiration rates before and after the addition of the electron transport inhibitors oligomycin (1.0 μM), trifluorocarbonylcyanide phenylhydrazone or FCCP (1.0 μM), an ionophore that is a mobile ion carrier, and a mixture of antimycin-A (1.0 μM) which is a complex III inhibitor and rotenone (1.0 μM), a mitochondrial inhibitor that prevents the transfer of electrons from the Fe-S center in Complex I to ubiquinone. The parameters calculated included: basal respiration (baseline respiration minus antimycin-A post injection respiration), ATP turnover (baseline respiration minus oligomycin post injection respiration), maximal respiratory capacity (FCCP stimulated respiration minus antimycin-A post injection respiration) and reserve respiratory capacity (FCCP stimulated respiration minus baseline respiration). Test articles on each well had four replicates (data not shown)."}, "[2]": {"tested_on": "human mesenchymal stem cells (hMSCs)", "protocol": "as §2"}, "PC3 cells": {"tested_on": "PC3 cells", "experiment": "XF24 MitoStress assay (OCR), PC3", "assay_type": "cell-based, human", "settings": "10 μM with respect to Pt, 12 h", "excerpt": "as §3, §4, §5, §6"}, "nDNA": {"tested_on": "nDNA", "experiment": "nDNA-Pt adduct quantification", "assay_type": "cell-based, human", "settings": "treated PC3 cells, 12 h", "protocol": "(§7) This might be due to the fact that for T-NP system, Platin-M needs to be released from the NPs prior to reduction to cisplatin and subsequent mtDNA interaction and all Platin-M might not have released from the NPs during the course of this experiment, mtDNA isolation was carried out after 12 h which corresponds to only ˜50% of Platin-M will be released from T-NPs (FIG. 4B).\n(§8) mtDNA-Pt and nDNA-Pt Adduct Quantification: The mitochondria and nuclei were isolated according to protocol mentioned before. These fractions were further fractionated in order to isolate mitochondrial and genomic DNA, respectively. For mitochondrial DNA (mtDNA), the freshly isolated mitochondria were re-suspended in 35 μL of mitochondrial lysis buffer. To this, 5 μL of the enzyme mix was added. This was incubated at 50° C. in water bath until the solution turned clear (˜1 h). To this, 100 μL of absolute ethanol was added and the resulting solution was incubated for 10 min at −20° C. […] The resulting solution was quantified for the amount and purity of DNA by UV-Vis spectroscopy (260/280 nm) and the amount of Pt by ICP-MS. […] Reprecipitation with 70% ethanol in nanopure H2O was performed until the ratio of the absorbances at 260 and 280 nm was […]. […] The resulting solution was quantified for the amount of DNA by UV-Vis spectroscopy (260/280 nm) and the amount of Pt by ICP-MS."}, "[3]": {"tested_on": "human neuroblastoma SH-SY5Y cell line", "experiment": "MTT cytotoxicity assay, SH-SY5Y", "assay_type": "cell-based", "settings": "free drugs 72 h, NPs media changed after 12 h plus 60 h", "protocol": "as §1, §2"}, "[4]": {"experiment": "Platin-M ability to form micelles (nanoprecipitation, DLS)", "assay_type": "physicochemical", "settings": "DMF solution of Platin-M into water", "excerpt": "Morphology of T-Platin-M and NT-Platin-M-NPs was investigated using transmission electron microscopy (TEM) (FIG. 4A). […] Percent loading of Platin-M varied between 6 to 27% based on the percent feed with respect to polymer feed (FIG. 4A, Tables S1 and S2). Given the amphiphilic character of Platin-M with two cationic TPP head groups and lipophilic DBCO moieties, we questioned whether the high loading of Platin-M is due to formation of self-micelles.\nDetermination of Platin-M Ability to Form Micelles: Platin-M was dissolved in DMF to a final concentration of 1.5 mg/mL. This solution was added drop wise slowly into vigorously stirring nanopure water (10 mL) and stirred at room temperature for 3 h. This solution was then filtered and washed through Amicon filters with a MW cutoff of 100 kDa 3 times in order to ensure the removal of all residual organic solvent. Finally, the NPs were resuspended in nanopure water (1 mL) and filtered through a 0.2 μm filter. The resulting suspension was characterized by DLS."}, "[5]": {"experiment": "Electrochemistry of Platin-M (redox potential)", "assay_type": "physicochemical", "settings": "1 mM in 20% DMF-PBS, 0.1 M KCl, 25° C.", "excerpt": "We recently developed a cycloaddition approach to introduce numerous functionalities on to Pt(IV) with high efficiency by keeping in mind that copper(I) based click chemistry can also cause reduction of Pt(IV). A TPP moiety was introduced on dibenzocyclooctyne (DBCO) derivative to result DBCO-TPP (FIG. 2, FIGS. S1-S4). A strain-promoted alkyne-azide cycloaddition (SPAAC) reaction between an azide-Pt(IV) precursor Platin-Az (Pathak, R. K., et al. Chem Eur J DOI: 10.1002/chem.201402573) recently developed by us and DBCO-TPP resulted Platin-M with high efficiency (FIG. 2). The prodrug Platin-M was characterized using microanalysis and spectroscopic techniques (FIGS. S5-S10). Feasible cellular reduction of Pt(IV) prodrug is required to release active cisplatin.\nElectrochemistry of Platin-M: Electrochemical measurements were made at 25° C. on an analytical system model CHI 920c potentiostat from CH Instruments, Inc. (Austin, Tex.). A conventional three-electrode set-up comprising a glassy carbon working electrode, platinum wire auxiliary electrode, and an Ag/AgCl (3M KCl) reference electrode was used for electrochemical measurements. The electrochemical data were uncorrected for junction potentials. KCl was used as a supporting electrolyte. Platin-M (1 mM) solutions were prepared in 20% DMF-phosphate buffered saline (PBS) of pH 6.0 and 7.4 with 0.1 M KCl and voltammograms were recorded at different scan rates (data not shown)."}, "mtDNA": {"tested_on": "mtDNA", "experiment": "mtDNA-Pt adduct quantification", "assay_type": "cell-based, human", "settings": "treated PC3 cells", "protocol": "as §7, §8"}},
  "data": [
    {"molecule": "N.N.[Cl][Pt][Cl]", "note": "[Cisplatin, Cisdiamminedichloridoplatinum(II), reference compound]", "values": [
      {"measurement": "IC50", "setting": "PCa PC3 cell line", "value": "13.1 ± 0.1", "unit": "µM"},
      {"measurement": "ATP-linked respiration on addition of oligomycin", "setting": "[1]", "value": "attenuated"},
      {"measurement": "basal OCR levels versus control cells", "setting": "[1]", "value": "did not show any changes"},
      {"measurement": "stimulation of mitochondrial respiration with FCCP after oligomycin", "setting": "[1]", "value": "comparable"},
      {"measurement": "IC50", "setting": "[2]; hMSC, MTT, free drugs 72 h, NPs media changed after 12 h plus 60 h", "value": "16.4 ± 0.5", "unit": "µM"},
      {"measurement": "ATP-linked respiration on addition of oligomycin", "setting": "PC3 cells", "value": "attenuated"},
      {"measurement": "basal OCR levels versus control cells", "setting": "PC3 cells", "value": "did not show any changes"},
      {"measurement": "stimulation of mitochondrial respiration with FCCP after oligomycin", "setting": "PC3 cells", "value": "comparable"},
      {"measurement": "Pt-nDNA adduct formation", "setting": "nDNA", "value": "much higher than the level of cisplatin adducts in mtDNA"},
      {"measurement": "IC50", "setting": "[3]", "value": 19, "unit": "µM"}
    ]},
    {"molecule": "[NH2][Pt]([NH2])([Cl])([Cl])([O]C(=O)CCCCCn1nnc2c1-c1ccccc1CN(C(=O)CCNC(=O)CCCCC[P+](c1ccccc1)(c1ccccc1)c1ccccc1)c1ccccc1-2)[O]C(=O)CCCCC[n+]1n[nH]c2c1-c1ccccc1CN(C(=O)CCNC(=O)CCCCC[P+](c1ccccc1)(c1ccccc1)c1ccccc1)c1ccccc1-2", "note": "[Platin-M]", "values": [
      {"measurement": "PDI of particles from nanoprecipitation without polymer", "setting": "[4]", "value": 0.799},
      {"measurement": "Size of particles from nanoprecipitation without polymer", "setting": "[4]", "value": "941.6±589.5", "unit": "nm"},
      {"measurement": "Zeta Potential of particles from nanoprecipitation without polymer", "setting": "[4]", "value": "−5.38±1.66", "unit": "mV"},
      {"measurement": "inhibition of mitochondrial respiration in A2780/CP70 cells compared to PC3 cells", "setting": "[1]", "value": "to a greater extent"},
      {"measurement": "ATP-linked respiration on addition of oligomycin", "setting": "[1]", "value": "less reduction"},
      {"measurement": "basal OCR levels versus control cells", "setting": "[1]", "value": "less than control cells"},
      {"measurement": "stimulation of mitochondrial respiration with FCCP after oligomycin", "setting": "[1]", "value": "no enhancement in OCR levels"},
      {"measurement": "toxicity in hMSCs less than in the resistant cells", "setting": "[2]; human, 72 h", "value": "~3", "unit": "times"},
      {"measurement": "ATP-linked respiration on addition of oligomycin", "setting": "PC3 cells", "value": "less reduction"},
      {"measurement": "basal OCR levels versus control cells", "setting": "PC3 cells", "value": "less than control cells"},
      {"measurement": "stimulation of mitochondrial respiration with FCCP after oligomycin", "setting": "PC3 cells", "value": "no enhancement in OCR levels"},
      {"measurement": "Redox potential vs. Ag/AgCl", "setting": "[5]; pH 6.0", "value": "−0.369", "unit": "V"},
      {"measurement": "Redox potential vs. NHE", "setting": "[5]; pH 6.0", "value": "−0.269"},
      {"measurement": "Redox potential vs. Ag/AgCl", "setting": "[5]; pH 7.4", "value": "−0.376", "unit": "V"},
      {"measurement": "Redox potential vs. NHE", "setting": "[5]; pH 7.4", "value": "−0.275"},
      {"measurement": "mtDNA adduct compared to T-Platin-M-NP system", "setting": "mtDNA; 12 h", "value": "marginally higher"},
      {"measurement": "Pt-mtDNA adduct formation", "setting": "mtDNA; mtDNA isolated after 12 h", "value": "exhibited binding with mtDNA"}
    ]}
  ]
}
